Source: ChEMBL document CHEMBL4390652, “Design, biological evaluation and X-ray crystallography of nanomolar multifunctional ligands targeting simultaneously acetylcholinesterase and glycogen synthase kinase-3” (Eur J Med Chem, 2019)

Key:
[1] = molecular target: Tyrosine-protein kinase ABL1 (Homo sapiens) (UniProt P00519); assay: Binding affinity to wild-type human non-phosphorylated ABL1 (S229 to K512 residues) expressed in mammalian expression system assessed as residual binding level at 10 uM by Kinomescan method relative to control
Sequence of Tyrosine-protein kinase ABL1 (Homo sapiens) (P00519 whole entry, the tested form may be a part): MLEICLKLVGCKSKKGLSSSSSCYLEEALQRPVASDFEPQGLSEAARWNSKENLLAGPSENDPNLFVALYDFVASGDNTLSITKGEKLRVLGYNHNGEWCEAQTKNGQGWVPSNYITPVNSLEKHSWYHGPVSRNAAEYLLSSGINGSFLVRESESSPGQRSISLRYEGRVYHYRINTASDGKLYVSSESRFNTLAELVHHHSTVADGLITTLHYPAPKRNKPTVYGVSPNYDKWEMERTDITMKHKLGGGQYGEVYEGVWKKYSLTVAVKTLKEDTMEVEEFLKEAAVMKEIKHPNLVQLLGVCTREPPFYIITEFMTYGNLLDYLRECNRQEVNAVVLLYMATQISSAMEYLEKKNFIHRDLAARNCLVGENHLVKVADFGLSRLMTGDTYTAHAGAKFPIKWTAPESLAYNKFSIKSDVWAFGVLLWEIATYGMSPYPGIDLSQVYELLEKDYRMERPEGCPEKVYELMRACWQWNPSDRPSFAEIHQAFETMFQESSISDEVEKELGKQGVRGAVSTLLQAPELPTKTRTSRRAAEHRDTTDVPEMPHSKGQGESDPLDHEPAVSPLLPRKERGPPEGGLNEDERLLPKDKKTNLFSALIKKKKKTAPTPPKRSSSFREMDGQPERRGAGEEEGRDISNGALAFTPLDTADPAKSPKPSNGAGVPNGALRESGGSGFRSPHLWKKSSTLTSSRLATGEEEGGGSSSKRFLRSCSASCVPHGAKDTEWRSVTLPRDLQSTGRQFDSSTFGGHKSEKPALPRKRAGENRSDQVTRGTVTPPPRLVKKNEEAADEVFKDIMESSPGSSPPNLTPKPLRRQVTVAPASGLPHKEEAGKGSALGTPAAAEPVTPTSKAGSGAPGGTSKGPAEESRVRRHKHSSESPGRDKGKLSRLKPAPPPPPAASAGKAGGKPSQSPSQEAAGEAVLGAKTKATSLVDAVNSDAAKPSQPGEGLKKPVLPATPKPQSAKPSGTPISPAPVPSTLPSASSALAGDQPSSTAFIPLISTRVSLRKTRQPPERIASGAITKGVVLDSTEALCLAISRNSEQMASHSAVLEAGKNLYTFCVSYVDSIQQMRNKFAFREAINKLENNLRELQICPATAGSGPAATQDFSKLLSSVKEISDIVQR

[2] = molecular target: Activin receptor type-1B (Homo sapiens) (UniProt P36896); assay: Binding affinity to wild-type human ACVR1B (S187 to I505 residues) expressed in bacterial expression system assessed as residual binding level at 10 uM by Kinomescan method relative to control
Sequence of Activin receptor type-1B (Homo sapiens) (P36896 whole entry, the tested form may be a part): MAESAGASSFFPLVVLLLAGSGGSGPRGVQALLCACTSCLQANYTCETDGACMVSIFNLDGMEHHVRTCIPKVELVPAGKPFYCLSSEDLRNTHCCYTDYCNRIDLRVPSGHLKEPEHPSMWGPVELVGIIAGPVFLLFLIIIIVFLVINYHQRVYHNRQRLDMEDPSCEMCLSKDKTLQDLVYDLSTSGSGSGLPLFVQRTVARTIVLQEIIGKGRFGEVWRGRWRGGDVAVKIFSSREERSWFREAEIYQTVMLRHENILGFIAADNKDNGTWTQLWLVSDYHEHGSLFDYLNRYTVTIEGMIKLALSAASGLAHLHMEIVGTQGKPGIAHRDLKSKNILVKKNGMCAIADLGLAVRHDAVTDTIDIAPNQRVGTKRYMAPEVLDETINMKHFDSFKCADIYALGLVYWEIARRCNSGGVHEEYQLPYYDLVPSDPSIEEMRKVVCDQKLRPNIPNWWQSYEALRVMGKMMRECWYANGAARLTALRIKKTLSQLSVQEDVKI

[3] = molecular target: Dual specificity protein kinase CLK1 (Homo sapiens) (UniProt P49759); assay: Binding affinity to wild-type human full length CLK1 (M1 to I484 residues) expressed in bacterial expression system assessed as residual binding level at 10 uM by Kinomescan method relative to control
[4] = molecular target: Discoidin domain-containing receptor 2 (Homo sapiens) (UniProt Q16832); assay: Binding affinity to wild-type human partial length DDR2 (V555 to E855 residues) expressed in mammalian expression system assessed as residual binding level at 10 uM by Kinomescan method relative to control
Sequence of Discoidin domain-containing receptor 2 (Homo sapiens) (Q16832 whole entry, the tested form may be a part): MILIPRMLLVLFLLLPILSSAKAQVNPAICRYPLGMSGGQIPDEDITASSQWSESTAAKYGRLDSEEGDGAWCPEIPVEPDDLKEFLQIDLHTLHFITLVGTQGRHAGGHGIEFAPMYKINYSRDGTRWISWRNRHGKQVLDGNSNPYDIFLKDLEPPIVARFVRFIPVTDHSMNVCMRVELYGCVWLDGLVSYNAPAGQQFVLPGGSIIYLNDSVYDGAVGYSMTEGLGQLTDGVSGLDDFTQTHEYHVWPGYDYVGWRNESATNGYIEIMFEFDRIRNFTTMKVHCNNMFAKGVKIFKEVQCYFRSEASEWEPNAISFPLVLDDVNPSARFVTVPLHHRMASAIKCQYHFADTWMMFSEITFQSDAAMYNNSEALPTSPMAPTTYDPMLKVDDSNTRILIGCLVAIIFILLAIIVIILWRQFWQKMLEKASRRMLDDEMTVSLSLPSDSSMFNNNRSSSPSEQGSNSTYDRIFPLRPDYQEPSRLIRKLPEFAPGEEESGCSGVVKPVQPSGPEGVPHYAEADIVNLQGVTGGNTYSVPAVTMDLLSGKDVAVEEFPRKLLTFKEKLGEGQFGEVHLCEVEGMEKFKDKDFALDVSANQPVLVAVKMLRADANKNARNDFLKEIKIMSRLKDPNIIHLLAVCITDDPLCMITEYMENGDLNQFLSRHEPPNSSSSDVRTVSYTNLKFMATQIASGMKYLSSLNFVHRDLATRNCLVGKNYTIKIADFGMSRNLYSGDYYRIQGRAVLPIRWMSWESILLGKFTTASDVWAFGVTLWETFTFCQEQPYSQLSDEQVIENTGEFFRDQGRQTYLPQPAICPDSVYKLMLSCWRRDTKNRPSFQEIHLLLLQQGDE

[5] = molecular target: Epidermal growth factor receptor (Homo sapiens) (UniProt P00533); assay: Binding affinity to wild-type human partial length EGFR (R669 to V1011 residues) expressed in bacterial expression system assessed as residual binding level at 10 uM by Kinomescan method relative to control
[6] = tested on: Epidermal growth factor receptor (Homo sapiens), P00533 [UNDEFINED MUTATION]; assay: Binding affinity to human partial length EGFR L747-E749del/A750P mutant expressed in bacterial expression system assessed as residual binding level at 10 uM by Kinomescan method relative to control
[7] = molecular target: Focal adhesion kinase 1 (Homo sapiens) (UniProt Q05397); assay: Binding affinity to wild-type human partial length FAK (D402 to R696 residues) expressed in bacterial expression system assessed as residual binding level at 10 uM by Kinomescan method relative to control
[8] = tested on: Receptor-type tyrosine-protein kinase FLT3 (Homo sapiens), P36888 [UNDEFINED MUTATION]; assay: Binding affinity to human partial length FLT3 ITD mutant expressed in bacterial expression system assessed as residual binding level at 10 uM by Kinomescan method relative to control
Sequence of Receptor-type tyrosine-protein kinase FLT3 (Homo sapiens), P36888 [UNDEFINED MUTATION] (P36888 whole entry, looked up, stated change not applied, the tested form may be a part): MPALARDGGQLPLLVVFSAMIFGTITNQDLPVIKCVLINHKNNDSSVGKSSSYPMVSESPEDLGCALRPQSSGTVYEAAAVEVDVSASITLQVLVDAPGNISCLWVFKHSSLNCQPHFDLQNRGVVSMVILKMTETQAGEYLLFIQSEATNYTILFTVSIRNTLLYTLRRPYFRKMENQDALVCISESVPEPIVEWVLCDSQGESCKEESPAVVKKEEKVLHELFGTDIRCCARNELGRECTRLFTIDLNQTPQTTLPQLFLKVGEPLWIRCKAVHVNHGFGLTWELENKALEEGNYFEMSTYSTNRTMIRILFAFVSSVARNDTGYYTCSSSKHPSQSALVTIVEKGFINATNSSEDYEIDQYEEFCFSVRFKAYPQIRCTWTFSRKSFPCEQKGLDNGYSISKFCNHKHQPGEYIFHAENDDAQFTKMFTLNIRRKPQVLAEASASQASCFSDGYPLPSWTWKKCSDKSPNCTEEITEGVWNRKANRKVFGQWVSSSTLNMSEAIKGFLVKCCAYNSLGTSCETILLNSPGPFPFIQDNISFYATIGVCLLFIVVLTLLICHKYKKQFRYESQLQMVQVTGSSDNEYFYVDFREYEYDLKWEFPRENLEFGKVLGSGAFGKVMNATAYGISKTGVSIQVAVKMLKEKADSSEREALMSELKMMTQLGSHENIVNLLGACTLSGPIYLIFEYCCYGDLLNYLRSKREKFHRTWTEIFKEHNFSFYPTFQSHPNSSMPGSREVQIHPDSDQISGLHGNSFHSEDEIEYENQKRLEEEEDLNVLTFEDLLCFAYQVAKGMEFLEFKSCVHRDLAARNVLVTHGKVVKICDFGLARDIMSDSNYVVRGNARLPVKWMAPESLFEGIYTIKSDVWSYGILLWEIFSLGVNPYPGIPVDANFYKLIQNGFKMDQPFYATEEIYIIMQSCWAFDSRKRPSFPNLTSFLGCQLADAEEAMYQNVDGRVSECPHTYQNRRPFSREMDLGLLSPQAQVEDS

[9] = tested on: Receptor-type tyrosine-protein kinase FLT3 (Homo sapiens), P36888 [UNDEFINED MUTATION]; assay: Binding affinity to human partial length FLT3 ITD/D835V double mutant expressed in bacterial expression system assessed as residual binding level at 10 uM by Kinomescan method relative to control
[10] = molecular target: Receptor-type tyrosine-protein kinase FLT3 (Homo sapiens) (UniProt P36888); assay: Binding affinity to wild-type human partial length autoinhibited FLT3 (H564 to Y969 residues) expressed in mammalian expression system assessed as residual binding level at 10 uM by Kinomescan method relative to control
Sequence of Receptor-type tyrosine-protein kinase FLT3 (Homo sapiens) (P36888 whole entry, the tested form may be a part): as the sequence (P36888 whole entry, looked up, stated change not applied, the tested form may be a part) above

[11] = molecular target: Rhodopsin kinase GRK7 (Homo sapiens) (UniProt Q8WTQ7); assay: Binding affinity to wild-type human full length GRK7 (M1 to L553 residues) expressed in mammalian expression system assessed as residual binding level at 10 uM by Kinomescan method relative to control
Sequence of Rhodopsin kinase GRK7 (Homo sapiens) (Q8WTQ7 whole entry, the tested form may be a part): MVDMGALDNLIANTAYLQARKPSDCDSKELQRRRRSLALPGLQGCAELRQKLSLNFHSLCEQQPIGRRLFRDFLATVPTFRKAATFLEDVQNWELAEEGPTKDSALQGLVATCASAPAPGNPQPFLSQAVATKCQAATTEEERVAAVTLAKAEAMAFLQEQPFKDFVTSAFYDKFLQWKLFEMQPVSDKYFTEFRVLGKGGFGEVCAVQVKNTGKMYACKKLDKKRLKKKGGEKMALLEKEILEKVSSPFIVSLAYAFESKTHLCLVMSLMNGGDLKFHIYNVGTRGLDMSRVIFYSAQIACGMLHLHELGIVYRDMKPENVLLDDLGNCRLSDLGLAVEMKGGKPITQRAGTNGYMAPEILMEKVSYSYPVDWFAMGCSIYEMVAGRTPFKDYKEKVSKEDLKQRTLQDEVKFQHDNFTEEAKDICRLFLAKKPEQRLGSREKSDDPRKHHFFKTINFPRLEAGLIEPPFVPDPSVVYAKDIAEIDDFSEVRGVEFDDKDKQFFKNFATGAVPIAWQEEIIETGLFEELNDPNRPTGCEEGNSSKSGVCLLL

[12] = molecular target: LIM domain kinase 1 (Homo sapiens) (UniProt P53667); assay: Binding affinity to wild-type human full length LIMK1 (M1 to D647 residues) expressed in bacterial expression system assessed as residual binding level at 10 uM by Kinomescan method relative to control
[13] = molecular target: Dual specificity mitogen-activated protein kinase kinase 3 (Homo sapiens) (UniProt P46734); assay: Binding affinity to wild-type human full length MEK3 (M1 to S318 residues) expressed in mammalian expression system assessed as residual binding level at 10 uM by Kinomescan method relative to control
[14] = molecular target: Serine/threonine-protein kinase 26 (Homo sapiens) (UniProt Q9P289); assay: Binding affinity to wild-type human full length MST4 (M1 to P416 residues) expressed in mammalian expression system assessed as residual binding level at 10 uM by Kinomescan method relative to control
[15] = molecular target: Serine/threonine-protein kinase Nek1 (Homo sapiens) (UniProt Q96PY6); assay: Binding affinity to wild-type human partial length NEK1 (M1 to K278 residues) expressed in bacterial expression system assessed as residual binding level at 10 uM by Kinomescan method relative to control
[16] = molecular target: Mitogen-activated protein kinase kinase kinase 14 (Homo sapiens) (UniProt Q99558); assay: Binding affinity to wild-type human partial length NIK (L318 to P947 residues) expressed in mammalian expression system assessed as residual binding level at 10 uM by Kinomescan method relative to control
[17] = tested on: Phosphatidylinositol 4,5-bisphosphate 3-kinase catalytic subunit alpha isoform (Homo sapiens), P42336 [C420R]; assay: Binding affinity to human partial length PIK3CA C420R mutant (R108 to N1068 residues) expressed in mammalian expression system assessed as residual binding level at 10 uM by Kinomescan method relative to control
[18] = molecular target: Phosphatidylinositol 4-kinase beta (Homo sapiens) (UniProt Q9UBF8); assay: Binding affinity to wild-type human full length PIK4CB (M1 to M828 residues) expressed in mammalian expression system assessed as residual binding level at 10 uM by Kinomescan method relative to control
[19] = molecular target: Ribosomal protein S6 kinase alpha-4 (Homo sapiens) (UniProt O75676); assay: Binding affinity to wild-type human partial length N-terminal RPS6KA4 kinase domain 1 expressed in bacterial expression system assessed as residual binding level at 10 uM by Kinomescan method relative to control
Sequence of Ribosomal protein S6 kinase alpha-4 (Homo sapiens) (O75676 whole entry, looked up, the tested form may be a part): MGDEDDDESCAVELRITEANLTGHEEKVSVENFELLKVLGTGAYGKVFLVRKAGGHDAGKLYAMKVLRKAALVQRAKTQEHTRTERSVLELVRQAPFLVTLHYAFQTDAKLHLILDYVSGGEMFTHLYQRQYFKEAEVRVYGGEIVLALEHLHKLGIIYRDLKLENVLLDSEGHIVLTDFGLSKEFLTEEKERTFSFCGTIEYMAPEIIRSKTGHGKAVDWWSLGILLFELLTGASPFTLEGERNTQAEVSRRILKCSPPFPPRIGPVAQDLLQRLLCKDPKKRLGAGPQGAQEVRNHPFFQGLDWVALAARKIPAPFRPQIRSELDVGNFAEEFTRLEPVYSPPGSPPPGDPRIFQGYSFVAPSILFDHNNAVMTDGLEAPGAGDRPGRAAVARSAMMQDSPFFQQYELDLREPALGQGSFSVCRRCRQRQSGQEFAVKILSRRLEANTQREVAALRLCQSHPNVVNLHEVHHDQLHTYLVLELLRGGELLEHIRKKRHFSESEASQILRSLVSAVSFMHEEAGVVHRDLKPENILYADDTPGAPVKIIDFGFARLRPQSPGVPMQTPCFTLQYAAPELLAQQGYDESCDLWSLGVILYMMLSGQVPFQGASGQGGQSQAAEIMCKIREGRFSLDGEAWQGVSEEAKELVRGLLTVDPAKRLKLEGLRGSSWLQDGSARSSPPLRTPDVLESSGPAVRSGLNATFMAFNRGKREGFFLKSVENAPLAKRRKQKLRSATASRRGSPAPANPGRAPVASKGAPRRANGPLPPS

[20] = molecular target: Ribosomal protein S6 kinase alpha-5 (Homo sapiens) (UniProt O75582); assay: Binding affinity to wild-type human partial length N-terminal RPS6KA5 kinase domain 1 expressed in bacterial expression system assessed as residual binding level at 10 uM by Kinomescan method relative to control
[21] = molecular target: Ribosomal protein S6 kinase alpha-2 (Homo sapiens) (UniProt Q15349); assay: Binding affinity to wild-type human partial length N-terminal RSK3 kinase domain 1 (M1 to Q385 residues) expressed in bacterial expression system assessed as residual binding level at 10 uM by Kinomescan method relative to control
[22] = molecular target: Ribosomal protein S6 kinase alpha-6 (Homo sapiens) (UniProt Q9UK32); assay: Binding affinity to wild-type human partial length C-terminal RSK4 kinase domain 2 (I401 to Y711 residues) expressed in bacterial expression system assessed as residual binding level at 10 uM by Kinomescan method relative to control
[23] = molecular target: Tyrosine-protein kinase Tec (Homo sapiens) (UniProt P42680); assay: Binding affinity to wild-type human partial length TEC (L341 to D620 residues) expressed in bacterial expression system assessed as residual binding level at 10 uM by Kinomescan method relative to control
[24] = molecular target: Serine/threonine-protein kinase tousled-like 2 (Homo sapiens) (UniProt Q86UE8); assay: Binding affinity to wild-type human partial length TLK2 (E424 to N749 residues) expressed in bacterial expression system assessed as residual binding level at 10 uM by Kinomescan method relative to control
[25] = molecular target: Serine/threonine-protein kinase 32C (Homo sapiens) (UniProt Q86UX6); assay: Binding affinity to wild-type human partial length YANK3 (M68 to G486 residues) expressed in bacterial expression system assessed as residual binding level at 10 uM by Kinomescan method relative to control

Compound `O=C(Nc1cc(-c2cn(CCNc3c4c(nc5ccccc35)CCCC4)nn2)ccn1)Nc1cccc2c1C1CCCCN1C2=O` (racemic) has an Activity [1] of 1.6%, an Activity [2] of 67% and an Activity [3] of 4.5%. The Activity [4] was 4.2%, the Activity [5] was 79% and the Activity [6] was 68%. The Activity [7] was 87%, the Activity [8] was 1% and the Activity [9] was 0.23%. For the same compound, the Activity [10] was 12%, the Activity [11] was 61% and the Activity [12] was 100%. The Activity [13] was 70%, the Activity [14] was 62% and the Activity [15] was 80%. For the same compound, the Activity [16] was 28%, the Activity [17] was 72% and the Activity [18] was 28%. The Activity [19] was 22%, the Activity [20] was 55% and the Activity [21] was 7.1%. The Activity [22] was 57%, the Activity [23] was 93% and the Activity [24] was 37%. It also gave an Activity [25] of 75%.
